In PMC7827406, “Structure–Activity Relationship (SAR) Study of Spautin-1 to Entail the Discovery of Novel NEK4 Inhibitors” (International Journal of Molecular Sciences, 2021):
Read-outs that look alike come from different tables or passages of the source.

What was measured:
Experiment in all cases: biochemical
Set-up in all cases: Eurofins KinaseProfiler full panel at Km ATP, residual kinase activity (%) relative to DMSO
PAK2(h) = PAK2(h) (Homo sapiens, UniProt Q13177)
Procedure, shortened: (§1)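 Radiometric kinase activity assays were run with ATP at Km and compounds at 10 µM, and remaining activity (%) was reported. A separate competitive binding screen measured DNA-tagged kinase displaced from immobilized active-site ligands by qPCR, giving percent kinase still bound at 10 µM compound in DMSO.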

FGFR2(h) = FGFR2(h) (Homo sapiens, UniProt P21802)
Procedure, shortened: as §1

FGFR4(h) = FGFR4(h) (Homo sapiens, UniProt P22455)
Procedure, shortened: as §1

Fgr(h) = Fgr(h) (Homo sapiens, UniProt P09769)
Procedure, shortened: as §1

Pim-3(h) = biological target: T1, Pim-3(h) (Homo sapiens, UniProt Q86V86)
T1 construct: gene PIM3
Procedure, shortened: as §1

Abl (H396P) (h) = biological target: T2, Abl (H396P) (h) (Homo sapiens, UniProt P00519, H396P)
T2 construct: gene ABL1
Procedure, shortened: as §1

PRP4(h) = biological target: T3, PRP4(h) (Homo sapiens, UniProt Q13523)
T3 construct: gene PRP4K
Procedure, shortened: as §1

ALK(h) = ALK(h) (Homo sapiens, UniProt Q9UM73)
Procedure, shortened: as §1

PDGFRα(V561D)(h) = biological target: T4, PDGFRα(V561D)(h) (Homo sapiens, UniProt P16234, V561D)
T4 construct: gene PDGFRA
Procedure, shortened: as §1

PAK3(h) = PAK3(h) (Homo sapiens, UniProt O75914)
Procedure, shortened: as §1

Rsk2(h) = biological target: T5, Rsk2(h) (Homo sapiens, UniProt P51812)
T5 construct: gene RPS6KA3
Procedure, shortened: as §1

PI3 Kinase (p120g)(h) = biological target: T6, PI3 Kinase (p120g)(h) (Homo sapiens, UniProt P48736)
T6 construct: gene PIK3CG
Procedure, shortened: as §1

SBK1(h) = SBK1(h) (Homo sapiens, UniProt Q52WX2)
Procedure, shortened: as §1

Cdc7/cyclinB1(h) = Cdc7/cyclinB1(h) (Homo sapiens, UniProt O00311)
Procedure, shortened: as §1

[1] = read-out: Residual activity (%) Spautin-1 5aa
[2] = read-out: Residual activity (%) 5as
[3] = read-out: Residual activity (%) 5at
[4] = read-out: Residual activity (%) 5ay

T3 sequence (Q13523 whole entry): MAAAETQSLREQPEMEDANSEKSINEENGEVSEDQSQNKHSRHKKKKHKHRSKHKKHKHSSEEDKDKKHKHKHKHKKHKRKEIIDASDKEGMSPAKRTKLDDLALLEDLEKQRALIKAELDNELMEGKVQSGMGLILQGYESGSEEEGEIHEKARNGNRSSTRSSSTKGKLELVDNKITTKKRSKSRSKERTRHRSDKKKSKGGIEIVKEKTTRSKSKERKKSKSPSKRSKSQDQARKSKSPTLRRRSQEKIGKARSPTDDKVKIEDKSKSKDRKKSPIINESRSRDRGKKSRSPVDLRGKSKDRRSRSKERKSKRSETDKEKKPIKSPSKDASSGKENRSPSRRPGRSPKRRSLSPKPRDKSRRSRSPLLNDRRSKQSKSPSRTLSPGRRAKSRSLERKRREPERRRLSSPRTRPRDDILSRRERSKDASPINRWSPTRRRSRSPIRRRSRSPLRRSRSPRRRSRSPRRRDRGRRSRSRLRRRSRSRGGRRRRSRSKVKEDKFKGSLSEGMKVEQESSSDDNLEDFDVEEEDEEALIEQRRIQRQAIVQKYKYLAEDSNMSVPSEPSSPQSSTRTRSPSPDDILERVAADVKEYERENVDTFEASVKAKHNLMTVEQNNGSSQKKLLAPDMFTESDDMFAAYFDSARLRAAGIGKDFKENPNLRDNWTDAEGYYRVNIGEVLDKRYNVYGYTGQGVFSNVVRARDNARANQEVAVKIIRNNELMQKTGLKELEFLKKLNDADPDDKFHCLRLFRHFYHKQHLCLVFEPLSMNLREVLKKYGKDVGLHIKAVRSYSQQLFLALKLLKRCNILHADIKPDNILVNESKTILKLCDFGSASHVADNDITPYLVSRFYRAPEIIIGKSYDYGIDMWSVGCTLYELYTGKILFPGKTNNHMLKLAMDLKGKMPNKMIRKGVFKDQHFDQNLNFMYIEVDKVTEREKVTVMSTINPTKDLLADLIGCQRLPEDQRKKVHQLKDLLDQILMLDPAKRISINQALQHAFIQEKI
T4 sequence (P16234 whole entry V561D): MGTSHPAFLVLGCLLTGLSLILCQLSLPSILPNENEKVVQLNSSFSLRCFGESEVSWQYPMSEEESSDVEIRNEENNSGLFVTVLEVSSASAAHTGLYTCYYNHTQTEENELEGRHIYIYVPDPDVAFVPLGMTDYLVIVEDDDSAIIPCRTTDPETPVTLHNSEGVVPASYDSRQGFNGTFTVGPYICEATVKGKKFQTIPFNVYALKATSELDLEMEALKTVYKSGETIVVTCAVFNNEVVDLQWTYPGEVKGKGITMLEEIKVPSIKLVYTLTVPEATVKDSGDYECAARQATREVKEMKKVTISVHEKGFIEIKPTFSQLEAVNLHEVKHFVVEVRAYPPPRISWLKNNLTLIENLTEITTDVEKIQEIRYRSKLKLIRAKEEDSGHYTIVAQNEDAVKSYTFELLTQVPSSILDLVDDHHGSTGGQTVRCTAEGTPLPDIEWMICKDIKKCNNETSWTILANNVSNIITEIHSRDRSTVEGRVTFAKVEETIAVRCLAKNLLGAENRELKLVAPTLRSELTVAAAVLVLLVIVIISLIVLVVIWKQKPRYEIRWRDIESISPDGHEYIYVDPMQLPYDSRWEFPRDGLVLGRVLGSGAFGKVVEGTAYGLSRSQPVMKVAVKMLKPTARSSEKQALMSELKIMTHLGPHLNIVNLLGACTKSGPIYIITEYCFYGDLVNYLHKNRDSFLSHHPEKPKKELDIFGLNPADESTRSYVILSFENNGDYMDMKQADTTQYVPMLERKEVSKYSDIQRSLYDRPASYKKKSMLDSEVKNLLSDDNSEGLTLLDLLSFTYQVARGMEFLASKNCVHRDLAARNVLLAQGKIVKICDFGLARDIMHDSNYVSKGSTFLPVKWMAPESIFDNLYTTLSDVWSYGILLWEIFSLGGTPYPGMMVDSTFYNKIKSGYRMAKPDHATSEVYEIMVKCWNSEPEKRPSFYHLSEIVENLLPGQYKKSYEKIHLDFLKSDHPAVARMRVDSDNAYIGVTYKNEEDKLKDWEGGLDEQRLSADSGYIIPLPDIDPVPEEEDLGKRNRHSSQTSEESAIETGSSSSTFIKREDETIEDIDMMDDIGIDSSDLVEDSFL
ALK(h), sequence (Q9UM73 whole entry): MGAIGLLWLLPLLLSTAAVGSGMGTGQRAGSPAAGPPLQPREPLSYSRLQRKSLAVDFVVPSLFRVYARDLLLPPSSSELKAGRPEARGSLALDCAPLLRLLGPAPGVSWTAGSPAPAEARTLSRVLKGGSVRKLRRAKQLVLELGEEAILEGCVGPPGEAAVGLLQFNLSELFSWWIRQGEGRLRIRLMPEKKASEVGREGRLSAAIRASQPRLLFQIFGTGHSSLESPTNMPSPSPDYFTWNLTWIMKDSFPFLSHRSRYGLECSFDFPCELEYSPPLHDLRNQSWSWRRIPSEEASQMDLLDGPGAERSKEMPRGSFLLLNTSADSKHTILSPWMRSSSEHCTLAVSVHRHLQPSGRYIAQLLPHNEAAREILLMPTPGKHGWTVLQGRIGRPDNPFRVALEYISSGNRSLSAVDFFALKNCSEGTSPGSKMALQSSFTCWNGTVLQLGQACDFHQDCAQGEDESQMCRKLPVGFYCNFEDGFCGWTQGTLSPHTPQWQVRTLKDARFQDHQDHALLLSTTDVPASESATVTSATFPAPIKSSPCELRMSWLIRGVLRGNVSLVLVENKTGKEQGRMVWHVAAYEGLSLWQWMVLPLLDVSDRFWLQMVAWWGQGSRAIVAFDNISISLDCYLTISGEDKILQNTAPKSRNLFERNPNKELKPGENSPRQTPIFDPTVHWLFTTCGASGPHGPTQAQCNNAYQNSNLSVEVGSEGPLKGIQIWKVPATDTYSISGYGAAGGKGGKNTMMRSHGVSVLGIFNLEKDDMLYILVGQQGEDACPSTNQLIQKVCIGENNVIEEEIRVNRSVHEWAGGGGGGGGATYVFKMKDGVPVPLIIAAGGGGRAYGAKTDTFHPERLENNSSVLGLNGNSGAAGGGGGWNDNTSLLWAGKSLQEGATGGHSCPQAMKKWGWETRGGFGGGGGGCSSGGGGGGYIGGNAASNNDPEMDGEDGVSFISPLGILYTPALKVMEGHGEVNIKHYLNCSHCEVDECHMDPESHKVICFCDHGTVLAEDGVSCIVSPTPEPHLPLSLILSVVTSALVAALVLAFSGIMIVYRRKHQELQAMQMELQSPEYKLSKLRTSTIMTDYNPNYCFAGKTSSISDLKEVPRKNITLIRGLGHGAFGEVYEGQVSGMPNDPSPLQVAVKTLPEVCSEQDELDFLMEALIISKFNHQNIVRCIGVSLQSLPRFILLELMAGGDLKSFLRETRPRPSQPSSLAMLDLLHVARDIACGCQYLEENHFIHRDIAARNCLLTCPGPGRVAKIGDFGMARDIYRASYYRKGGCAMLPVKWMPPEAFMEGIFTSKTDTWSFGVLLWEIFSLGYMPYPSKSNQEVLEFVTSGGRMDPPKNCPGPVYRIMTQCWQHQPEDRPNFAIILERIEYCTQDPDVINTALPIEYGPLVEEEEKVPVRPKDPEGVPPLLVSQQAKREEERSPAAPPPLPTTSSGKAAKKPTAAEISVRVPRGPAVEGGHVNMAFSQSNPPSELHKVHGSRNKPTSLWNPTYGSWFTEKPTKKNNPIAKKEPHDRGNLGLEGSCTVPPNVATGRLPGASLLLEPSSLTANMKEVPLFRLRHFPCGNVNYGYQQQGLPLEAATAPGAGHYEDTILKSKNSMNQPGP
FGFR4(h), sequence (P22455 whole entry): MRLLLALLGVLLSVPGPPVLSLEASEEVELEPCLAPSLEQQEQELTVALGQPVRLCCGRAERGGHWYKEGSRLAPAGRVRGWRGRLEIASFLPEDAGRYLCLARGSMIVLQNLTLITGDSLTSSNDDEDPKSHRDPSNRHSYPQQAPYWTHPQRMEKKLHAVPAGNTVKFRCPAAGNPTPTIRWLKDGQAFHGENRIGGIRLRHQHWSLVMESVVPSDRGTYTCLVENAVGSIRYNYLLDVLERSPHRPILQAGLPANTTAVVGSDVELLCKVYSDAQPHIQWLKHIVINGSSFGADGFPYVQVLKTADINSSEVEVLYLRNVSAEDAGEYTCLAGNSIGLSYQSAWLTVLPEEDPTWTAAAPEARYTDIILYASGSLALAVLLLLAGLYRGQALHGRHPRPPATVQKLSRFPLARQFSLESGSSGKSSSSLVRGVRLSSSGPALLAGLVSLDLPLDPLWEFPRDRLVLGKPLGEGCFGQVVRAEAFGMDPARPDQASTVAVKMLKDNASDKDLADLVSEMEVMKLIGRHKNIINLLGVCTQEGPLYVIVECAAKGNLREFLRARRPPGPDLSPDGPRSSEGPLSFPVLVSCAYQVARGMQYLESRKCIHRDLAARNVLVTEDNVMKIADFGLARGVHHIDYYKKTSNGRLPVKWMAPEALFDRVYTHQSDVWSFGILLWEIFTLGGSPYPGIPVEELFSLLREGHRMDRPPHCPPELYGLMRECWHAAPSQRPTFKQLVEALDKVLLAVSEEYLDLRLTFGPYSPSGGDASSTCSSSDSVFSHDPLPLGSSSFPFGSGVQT
PAK3(h), sequence (O75914 whole entry): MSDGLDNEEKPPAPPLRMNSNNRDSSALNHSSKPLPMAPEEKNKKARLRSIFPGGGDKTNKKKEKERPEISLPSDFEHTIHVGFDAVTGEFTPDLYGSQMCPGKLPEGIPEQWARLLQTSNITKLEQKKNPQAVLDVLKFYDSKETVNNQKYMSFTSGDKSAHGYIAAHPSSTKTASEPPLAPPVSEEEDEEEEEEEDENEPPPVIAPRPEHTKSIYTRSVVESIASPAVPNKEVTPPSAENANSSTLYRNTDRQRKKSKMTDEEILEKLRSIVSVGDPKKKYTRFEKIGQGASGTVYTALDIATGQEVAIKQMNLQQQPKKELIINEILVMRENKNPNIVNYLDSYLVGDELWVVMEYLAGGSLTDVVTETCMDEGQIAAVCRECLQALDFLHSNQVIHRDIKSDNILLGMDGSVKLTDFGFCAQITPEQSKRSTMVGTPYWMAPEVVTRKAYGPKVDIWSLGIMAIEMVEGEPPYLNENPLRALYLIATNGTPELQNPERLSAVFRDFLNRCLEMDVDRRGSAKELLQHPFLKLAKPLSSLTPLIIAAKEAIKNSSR

SMILES: Fc1ccc(CNc2ncnc3ccc(F)cc23)cc1 [5aa, 6-Fluoro-N-(4-fluorobenzyl)-4-Quinazolinamine]
- remaining activity at 10 µM (PAK2(h); [1]): 87%
- remaining activity at 10 µM (FGFR2(h); [1]): 91%
- remaining activity at 10 µM (FGFR4(h); [1]): 99%
- remaining activity at 10 µM (Fgr(h); [1]): 112%
- remaining activity at 10 µM (Pim-3(h); [1]): 123%
- remaining activity at 10 µM (Abl (H396P) (h); [1]): 95%
- remaining activity at 10 µM (PRP4(h); [1]): 104%
- remaining activity at 10 µM (ALK(h); [1]): 82%
- remaining activity at 10 µM (PDGFRα(V561D)(h); [1]): 86%
- remaining activity at 10 µM (PAK3(h); [1]): 96%
- remaining activity at 10 µM (Rsk2(h); [1]): 93%
- remaining activity at 10 µM (PI3 Kinase (p120g)(h); [1]): 91%
- remaining activity at 10 µM (SBK1(h); [1]): 106%
- remaining activity at 10 µM (Cdc7/cyclinB1(h); [1]): 92%

SMILES: Fc1ccc(CCNc2ncnc3ccc(F)cc23)cc1 [5as, 6-Fluoro-N-[2-(4-Fluorophenyl)Ethyl]-4-Quinazolinamine]
- remaining activity at 10 µM (PAK2(h); [2]): 94%
- remaining activity at 10 µM (FGFR2(h); [2]): 99%
- remaining activity at 10 µM (FGFR4(h); [2]): 93%
- remaining activity at 10 µM (Fgr(h); [2]): 114%
- remaining activity at 10 µM (Pim-3(h); [2]): 92%
- remaining activity at 10 µM (Abl (H396P) (h); [2]): 86%
- remaining activity at 10 µM (PRP4(h); [2]): 105%
- remaining activity at 10 µM (ALK(h); [2]): 59%
- remaining activity at 10 µM (PDGFRα(V561D)(h); [2]): 92%
- remaining activity at 10 µM (PAK3(h); [2]): 107%
- remaining activity at 10 µM (Rsk2(h); [2]): 79%
- remaining activity at 10 µM (PI3 Kinase (p120g)(h); [2]): 92%
- remaining activity at 10 µM (SBK1(h); [2]): 95%
- remaining activity at 10 µM (Cdc7/cyclinB1(h); [2]): 79%

SMILES: Fc1ccc2ncnc(NCCc3ccc(Cl)cc3)c2c1 [5at, N-[2-(4-Chlorophenyl)Ethyl]-6-Fluoro-4-Quinazolinamine]
- remaining activity at 10 µM (PAK2(h); [3]): 78%
- remaining activity at 10 µM (FGFR2(h); [3]): 84%
- remaining activity at 10 µM (FGFR4(h); [3]): 96%
- remaining activity at 10 µM (Fgr(h); [3]): 95%
- remaining activity at 10 µM (Pim-3(h); [3]): 97%
- remaining activity at 10 µM (Abl (H396P) (h); [3]): 80%
- remaining activity at 10 µM (PRP4(h); [3]): 99%
- remaining activity at 10 µM (ALK(h); [3]): 86%
- remaining activity at 10 µM (PDGFRα(V561D)(h); [3]): 90%
- remaining activity at 10 µM (PAK3(h); [3]): 93%
- remaining activity at 10 µM (Rsk2(h); [3]): 73%
- remaining activity at 10 µM (PI3 Kinase (p120g)(h); [3]): 90%
- remaining activity at 10 µM (SBK1(h); [3]): 103%
- remaining activity at 10 µM (Cdc7/cyclinB1(h); [3]): 76%

SMILES: COc1ccc2ncnc(Nc3cccc(F)c3)c2c1 [5ay, N-(3-Fluorophenyl)-6-Methoxy-4-Quinazolinamine]
- remaining activity at 10 µM (PAK2(h); [4]): 98%
- remaining activity at 10 µM (FGFR2(h); [4]): 96%
- remaining activity at 10 µM (FGFR4(h); [4]): 98%
- remaining activity at 10 µM (Fgr(h); [4]): 90%
- remaining activity at 10 µM (Pim-3(h); [4]): 96%
- remaining activity at 10 µM (Abl (H396P) (h); [4]): 76%
- remaining activity at 10 µM (PRP4(h); [4]): 100%
- remaining activity at 10 µM (ALK(h); [4]): 72%
- remaining activity at 10 µM (PDGFRα(V561D)(h); [4]): 98%
- remaining activity at 10 µM (PAK3(h); [4]): 99%
- remaining activity at 10 µM (Rsk2(h); [4]): 70%
- remaining activity at 10 µM (PI3 Kinase (p120g)(h); [4]): 91%
- remaining activity at 10 µM (SBK1(h); [4]): 83%
- remaining activity at 10 µM (Cdc7/cyclinB1(h); [4]): 73%
